Results published in patent publication US10780090B2, “Heteroaryl compounds useful as inhibitors of SUMO activating enzyme” (Millennium Pharmaceuticals, Inc., priority 2014, dated 2020).
Read-outs that look alike come from different tables or passages of the source.

Molecular target: recombinant human SAE enzyme (Homo sapiens (Human), UniProt Q9UBT2)
Test: SAE HTRF enzyme assay
Assay type: biochemical
Details: for inhibition at 0.111 µM: read-out: Percent Inhibition
Method in brief: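 HTRF read-out using Eu-cryptate anti-Flag and allophycocyanin anti-GST antibodies, added with EDTA stop buffer and read after 2 h at 24 °C. The preceding reaction ran 105 min at 24 °C: 0.11 nM recombinant SAE, 0.5 μM ATP, Sumo-Flag, Ubc9-GST, pH 7.5. Values given as single-concentration inhibition or IC50.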

[1] = SAE inhibition at compound concentration 0.111 μM
[2] = SAE inhibition, class symbols, legend in nM

Sequence of recombinant human SAE enzyme (Q9UBT2 whole entry): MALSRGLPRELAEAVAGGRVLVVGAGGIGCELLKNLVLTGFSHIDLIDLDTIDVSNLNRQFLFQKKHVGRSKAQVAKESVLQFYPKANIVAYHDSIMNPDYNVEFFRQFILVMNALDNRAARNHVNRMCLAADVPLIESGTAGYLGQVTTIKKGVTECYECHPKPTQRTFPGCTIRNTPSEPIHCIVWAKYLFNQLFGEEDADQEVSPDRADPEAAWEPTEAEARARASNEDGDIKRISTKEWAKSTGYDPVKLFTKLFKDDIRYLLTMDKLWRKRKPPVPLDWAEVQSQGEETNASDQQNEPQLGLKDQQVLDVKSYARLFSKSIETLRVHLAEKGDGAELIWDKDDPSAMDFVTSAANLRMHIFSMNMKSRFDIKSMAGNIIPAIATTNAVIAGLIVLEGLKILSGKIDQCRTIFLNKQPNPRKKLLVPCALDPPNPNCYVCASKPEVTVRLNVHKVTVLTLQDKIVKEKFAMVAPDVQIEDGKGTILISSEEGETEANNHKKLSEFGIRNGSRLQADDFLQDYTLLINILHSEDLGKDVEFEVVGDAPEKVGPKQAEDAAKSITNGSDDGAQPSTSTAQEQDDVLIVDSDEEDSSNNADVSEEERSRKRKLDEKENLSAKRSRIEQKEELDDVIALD
Sequence of recombinant human SAE enzyme (Q9UBE0 whole entry partner): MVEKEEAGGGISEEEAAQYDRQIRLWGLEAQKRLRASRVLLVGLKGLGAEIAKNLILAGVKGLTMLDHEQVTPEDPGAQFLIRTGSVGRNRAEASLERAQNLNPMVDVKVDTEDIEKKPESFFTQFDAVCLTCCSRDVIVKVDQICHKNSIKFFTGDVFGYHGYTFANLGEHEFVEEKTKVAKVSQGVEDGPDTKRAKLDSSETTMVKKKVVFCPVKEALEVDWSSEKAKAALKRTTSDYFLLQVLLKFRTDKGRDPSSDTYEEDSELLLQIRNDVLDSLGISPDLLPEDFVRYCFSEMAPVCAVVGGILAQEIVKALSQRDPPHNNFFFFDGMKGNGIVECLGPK

| Compound | IC50 (class symbols A/B/C) | inhibition at 0.111 µM (Concentration 0.111 μM) | IC50 [2] | also measured |
| --- | --- | --- | --- | --- |
| COCc1sc(C(=O)c2cncnc2N[C@@H]2C[C@H](COS(N)(=O)=O)[C@@H](O)C2)cc1C(O)c1cccc(Cl)c1 (single isomer, unassigned) [I-7b, [(1R,2S,4R)-4-{[5-({4-[(R)-(3-chlorophenyl)(hydroxy)methyl]-5-(methoxymethyl)-2-thienyl}carbonyl)pyrimidin-4-yl]amino}-2-hydroxycyclopentyl]methyl sulfamate or [(1R,2S,4R)-4-{[5-({4-[(S)-(3-chlorophenyl)(hydroxy)methyl]-5-(methoxymethyl)-2-thienyl}carbonyl)pyrimidin-4-yl]amino}-2-hydroxycyclopentyl]methyl sulfamate] | < 10 nM |  |  | Percent Inhibition (Concentration 0.111 μM): 98 |
| N#Cc1ccccc1OCc1csc(C(=O)c2cncnc2N[C@@H]2C[C@H](COS(N)(=O)=O)[C@@H](O)C2)c1 [I-124, [(1R,2S,4R)-4-{[5-({4-[(2-cyanophenoxy)methyl]-2-thienyl}carbonyl)pyrimidin-4-yl]amino}-2-hydroxycyclopentyl]methyl sulfamate] | < 10 nM | 97% |  |  |
| Cc1sc(C(=O)c2cncnc2N[C@@H]2C[C@H](COS(N)(=O)=O)[C@@H](OC(=O)c3cccc(COP(=O)(O)O)c3)C2)cc1[C@@H]1OCCc2ccc(Cl)cc21 [I-345, (1S,2R,4R)-4-{[5-({4-[(1R)-7-chloro-3,4-dihydro-1H-isochromen-1-yl]-5-methyl-2-thienyl}carbonyl)pyrimidin-4-yl]amino}-2-[(sulfamoyloxy)methyl]cyclopentyl 3-[(phosphonooxy)methyl]benzoate] |  |  | 100 to 1000 nM | inhibition at 0.111 µM [1]: 5% |
| NS(=O)(=O)OC[C@H]1C[C@@H](Nc2ncncc2C(=O)c2cc([C@@H]3CCCc4ccc(Cl)cc43)cs2)C[C@@H]1O (single isomer, unassigned) [I-335a, [(1R,2S,4R)-4-{[5-({4-[(1R)-7-chloro-1,2,3,4-tetrahydronaphthalen-1-yl]-2-thienyl}carbonyl)pyrimidin-4-yl]amino}-2-hydroxycyclopentyl]methyl sulfamate or [(1R,2S,4R)-4-{[5-({4-[(1S)-7-chloro-1,2,3,4-tetrahydronaphthalen-1-yl]-2-thienyl}carbonyl)pyrimidin-4-yl]amino}-2-hydroxycyclopentyl]methyl sulfamate] |  |  | 100 to 1000 nM | Percent Inhibition [1]: 14% |
| NS(=O)(=O)OC[C@H]1C[C@@H](Nc2ncncc2C(=O)c2cc(Cl)c([C@H](O)c3cccc(Cl)c3)s2)C[C@@H]1O (single isomer, unassigned) [I-151b, [(1R,2S,4R)-4-{[5-({4-chloro-5-[(R)-(3-chlorophenyl)(hydroxy)methyl]-2-thienyl}carbonyl)pyrimidin-4-yl]amino}-2-hydroxycyclopentyl]methyl sulfamate or [(1R,2S,4R)-4-{[5-({4-chloro-5-[(S)-(3-chlorophenyl)(hydroxy)methyl]-2-thienyl}carbonyl)pyrimidin-4-yl]amino}-2-hydroxycyclopentyl]methyl sulfamate] | < 10 nM |  |  | Percent Inhibition (Concentration 0.111 μM): 93 |
| NS(=O)(=O)OC[C@H]1C[C@@H](Nc2ncncc2C(=O)c2cc([C@@H]3OCc4ccc(Cl)cc43)c(Cl)s2)C[C@@H]1O (single isomer, unassigned) [I-310b, [(1R,2S,4R)-4-{[5-({5-chloro-4-[(1R)-6-chloro-1,3-dihydro-2-benzofuran-1-yl]-2-thienyl}carbonyl)pyrimidin-4-yl]amino}-2-hydroxycyclopentyl]methyl sulfamate or [(1R,2S,4R)-4-{[5-({5-chloro-4-[(1S)-6-chloro-1,3-dihydro-2-benzofuran-1-yl]-2-thienyl}carbonyl)pyrimidin-4-yl]amino}-2-hydroxycyclopentyl]methyl sulfamate] |  |  | < 10 nM | Percent Inhibition [1]: 98% |
| NS(=O)(=O)OC[C@H]1C[C@@H](Nc2ncncc2C(=O)c2ccc(-c3ccccc3Cl)o2)[C@H](O)[C@@H]1O [I-158, [(1R,2R,3S,4R)-4-({5-[5-(2-chlorophenyl)-2-furoyl]pyrimidin-4-yl}amino)-2,3-dihydroxycyclopentyl]methyl sulfamate] |  | 86% |  |  |
| CC(=O)c1cc(C(=O)c2cncnc2N[C@@H]2C[C@H](COS(N)(=O)=O)[C@@H](O)C2)sc1Cl [I-242, [(1R,2S,4R)-4-{(5-[(4-Acetyl-5-chloro-2-thienyl)carbonyl]pyrimidin-4-yl}amino)-2-hydroxycyclopentyl]methyl sulfamate] | 100 to 1000 nM | 25% |  |  |
| NS(=O)(=O)OC[C@H]1C[C@@H](Nc2ncncc2C(=O)c2cc([C@H]3NCCc4ccccc43)c(Cl)s2)[C@H](O)[C@@H]1O (mixture of isomers) [I-302, [(1R,2R,3S,4R)-4-{[5-({5-chloro-4-[(1S)-1,2,3,4-tetrahydroisoquinolin-1-yl]-2-thienyl}carbonyl)pyrimidin-4-yl]amino}-2,3-dihydroxycyclopentyl]methyl sulfamate and [(1R,2R,3S,4R)-4-{[5-({5-chloro-4-[(1R)-1,2,3,4-tetrahydroisoquinolin-1-yl]-2-thienyl}carbonyl)pyrimidin-4-yl]amino}-2,3-dihydroxycyclopentyl]methyl sulfamate] |  |  | < 10 nM | Percent Inhibition [1]: 100% |
| Cc1ccccc1OCc1csc(C(=O)c2cncnc2N[C@@H]2C[C@H](COS(N)(=O)=O)[C@@H](O)C2)c1 [I-131, [(1R,2S,4R)-2-hydroxy-4-{[5-({4-[(2-methylphenoxy)methyl]-2-thienyl}carbonyl)pyrimidin-4-yl]amino}cyclopentyl]methyl sulfamate] | < 10 nM | 96% |  |  |
| NS(=O)(=O)OC[C@H]1C[C@@H](Nc2ncncc2C(=O)c2cc(C(=O)c3cccc(Cl)c3)c(Cl)s2)C[C@@H]1O [I-207, {(1R,2S,4R)-4-[(5-{[5-Chloro-4-(3-chlorobenzoyl)-2-thienyl]carbonyl}pyrimidin-4-yl)amino]-2-hydroxycyclopentyl}methyl sulfamate] | 100 to 1000 nM | 51% |  |  |
| Cc1sc(C(=O)c2cncnc2N[C@@H]2C[C@H](COS(N)(=O)=O)[C@@H](O)[C@H]2O)cc1[C@@H]1NCCc2ccc(Br)cc21 (single isomer, unassigned) [I-247b, [(1R,2R,3S,4R)-4-{[5-({4-[(1R)-7-bromo-1,2,3,4-tetrahydroisoquinolin-1-yl]-5-methyl-2-thienyl}carbonyl)pyrimidin-4-yl]amino}-2,3-dihydroxycyclopentyl]methyl sulfamate or [(1R,2R,3S,4R)-4-{[5-({4-[(1S)-7-bromo-1,2,3,4-tetrahydroisoquinolin-1-yl]-5-methyl-2-thienyl}carbonyl)pyrimidin-4-yl]amino}-2,3-dihydroxycyclopentyl]methyl sulfamate] | < 10 nM |  |  | Percent Inhibition (Concentration 0.111 μM): 98 |
| NS(=O)(=O)OC[C@H]1C[C@@H](Nc2ncncc2C(=O)c2cc([C@H](O)C3CCOCC3)c(Cl)s2)C[C@@H]1O (mixture of isomers) [I-174, [(1R,2S,4R)-4-{[5-({5-chloro-4-[(R)-hydroxy(tetrahydro-2H-pyran-4-yl)methyl]-2-thienyl}carbonyl)pyrimidin-4-yl]amino}-2-hydroxycyclopentyl]methyl sulfamate and [(1R,2S,4R)-4-{[5-({5-chloro-4-[(S)-hydroxy(tetrahydro-2H-pyran-4-yl)methyl]-2-thienyl}carbonyl)pyrimidin-4-yl]amino}-2-hydroxycyclopentyl]methyl sulfamate] | 10 to 100 nM |  |  | Percent Inhibition (Concentration 0.111 μM): 89 |
| COc1cccc(Cc2csc(C(=O)c3cncnc3N[C@@H]3C[C@H](COS(N)(=O)=O)[C@@H](O)C3)c2)c1 [I-123, {(1R,2S,4R)-2-hydroxy-4-[(5-{[4-(3-methoxybenzyl)-2-thienyl]carbonyl}pyrimidin-4-yl)amino]cyclopentyl}methyl sulfamate] | < 10 nM | 96% |  |  |
| NS(=O)(=O)OC[C@H]1C[C@@H](Nc2ncncc2C(=O)c2cc(CC3=CCSCC3)cs2)C[C@@H]1O [I-173, {(1R,2S,4R)-4-[(5-{[4-(3,6-dihydro-2H-thiopyran-4-ylmethyl)-2-thienyl]carbonyl}pyrimidin-4-yl)amino]-2-hydroxycyclopentyl}methyl sulfamate] | 10 to 100 nM | 86% |  |  |
| Cc1sc(C(=O)c2cncnc2N[C@@H]2C[C@H](COS(N)(=O)=O)[C@@H](O)C2)cc1[C@@H]1OCCc2cccnc21 (single isomer, unassigned) [I-285b, [(1R,2S,4R)-4-{[5-({4-[(8S)-5,8-dihydro-6H-pyrano[3,4-b]pyridin-8-yl]-5-methyl-2-thienyl}carbonyl)pyrimidin-4-yl]amino}-2-hydroxycyclopentyl]methyl sulfamate or [(1R,2S,4R)-4-{[5-({4-[(8R)-5,8-dihydro-6H-pyrano[3,4-b]pyridin-8-yl]-5-methyl-2-thienyl}carbonyl)pyrimidin-4-yl]amino}-2-hydroxycyclopentyl]methyl sulfamate] |  |  | 100 to 1000 nM | Percent Inhibition [1]: 44% |
| CN1CCc2ccc(Cl)cc2[C@@H]1c1csc(C(=O)c2cncnc2N[C@@H]2C[C@H](COS(N)(=O)=O)[C@@H](O)C2)c1 (single isomer, unassigned) [I-307a, [(1R,2S,4R)-4-{[5-({4-[(1R)-7-chloro-2-methyl-1,2,3,4-tetrahydroisoquinolin-1-yl]-2-thienyl}carbonyl)pyrimidin-4-yl]amino}-2-hydroxycyclopentyl]methyl sulfamate or [(1R,2S,4R)-4-{[5-({4-[(1S)-7-chloro-2-methyl-1,2,3,4-tetrahydroisoquinolin-1-yl]-2-thienyl}carbonyl)pyrimidin-4-yl]amino}-2-hydroxycyclopentyl]methyl sulfamate] |  |  | 100 to 1000 nM | Percent Inhibition [1]: 45% |
| NS(=O)(=O)OC[C@H]1C[C@@H](Nc2ncncc2C(=O)c2ncc(Cc3ccccc3)s2)[C@H](O)[C@@H]1O [I-350, [(1R,2R,3S,4R)-4-({5-[(5-benzyl-1,3-thiazol-2-yl)carbonyl]pyrimidin-4-yl}amino)-2,3-dihydroxycyclopentyl]methyl sulfamate] |  |  | 10 to 100 nM | inhibition at 0.111 µM [1]: 75% |
